According to patent publication US20100120902A1, “STANDARIZED BIOACTIVE HERBAL EXTRACTS” (RANBAXY LABORATORIES LIMITED, priority 2007, published 2010):
Converted amounts (≈) assume the structure as drawn.

How the values were obtained:
[1] = system: CFA induced arthritis (contra-lateral paw volume); assay: Antiarthritic efficacy against CFA induced arthritis model; assay type: in vivo, Wistar rats; conditions: 0.2 mg/kg/day
Method: Wistar rats were injected with 50 μL of 1 mg/ml solution of Complete Freund's adjuvant (CFA) subplantarly. […] The animals showing 0.30-0.40 ml increase in paw volume of the contralateral paw from the basal were included in the study.
The test sample or vehicle (polyethylene glycol+water 20:80) was administered in two divided doses for 10 days. The paw volume of the animals was recorded on the alternate days. A plot of change in paw volume from day 0 was made and area under the curve (AUC) was calculated using GraphPad Prism software (GraphPad Software Inc, USA, Version 4) for each animal and was averaged in each treatment group.

[2] = system: CFA induced arthritis in ankle joint; assay: Histopathological analysis of CFA induced arthritis in ankle joint; assay type: in vivo, Wistar rats
Method: At the end of the study (p), animals were euthanized and ankle joints of contra-lateral hind limb were collected for histopathological evaluation Ankle joints were evaluated for the effect on synovial proliferation, inflammation of soft tissues, pannus formation and erosion of cartilage as well as bone (FIG. 13). The changes observed were scored as 0=no change, 1 mild, 2=moderate, 3=marked and 4=severe. The scores for each parameter mentioned above were summed to obtain total histopathological score for each animal.

[3] = system: carrageenan induced paw edema; assay: Anti-inflammatory efficacy against carrageenan induced paw edema model; assay type: in vivo, rats; conditions: 5 mg/kg oral, 3 hours post carrageenan
Method: One hour later, animals were challenged with carrageenan (1% w/v, 100 μL/rat) subplantarly. The paw edema was recorded 3 hours post carrageenan challenge. Data from each group was expressed as mean±SEM. Change in paw edema in treatment group were compared from vehicle control group using one-way ANOVA followed by Dunnett's multiple comparison test. A p≦0.05 was considered statistically significant.

CFA induced hyperalgesia = assay: Antihyperalgesic activity against Complete Freund's adjuvant (CFA) induced hyperalgesia; assay type: in vivo, rats; conditions: 5 mg/kg oral, 2 hours post treatment
Method: Basal weight bearing threshold of the rats was determined using Randall Selitto analgesiometer (Ugo Basile, Italy) followed by challenge with Complete Freund's adjuvant (a suspension of desiccated Mycobacterium butyricum in a mixture of paraffin oil and an emulsifying agent, mannide monooleate; 50 μL of 500 μg/ml suspension/animal), injected subplantarly. Twenty four hours later weight-bearing threshold of the animals was recorded as pre-dose values at time 0 hours. […] Two hours post treatment, weight-bearing threshold of the animals was recorded again. […] One group was treated with Incomplete Freund's adjuvant (IFA) and served as negative control group.

[4] = system: carrageenan induced hyperalgesia; assay: Analgesic efficacy against carrageenan induced hyperalgesia; assay type: in vivo, wistar rats; conditions: 5 mg/kg oral, after 2 hours
[5] = system: formalin induced Phase I and Phase II pain; assay: Analgesic efficacy against formalin test; assay type: in vivo, mice; conditions: 10 mg/kg i.p.
Method: Thirty minutes later, formalin solution (1% w/v, 25 μL/mice) was injected subplantarly in mice and immediately after injection, duration of mice licking or flicking of the injected paw was recorded for a period of 30 minutes in 5 minute slots. The first five minutes duration constitutes Phase-I pain which is centrally mediated while Phase-II pain which lasts from 10-30 minutes is peripherally mediated pain. Values of each group were expressed as mean±SEM (standard error of mean) and comparison was made with control group using one-way ANOVA followed by Dunnett's multiple test and a p≦0.05 was considered statistically significant.

[6] = system: LPS induced TNF-α release (plasma); assay: Anti-inflammatory efficacy against endotoxemia; assay type: in vivo, female Balb/C mice; conditions: 10 mg/kg oral
Source text: One hour later, animals were challenged with LPS (lipopolysacchride). Ninety minutes later, blood was collected and TNF-α was estimated in the plasma using ELISA kit and values for each treatment group was expressed as mean±SEM. Comparison was made with control group using one-way ANOVA followed by Dunnett's multiple test and a p≦0.05 was considered statistically significant.

[7] = system: TNF-α, IL-1β and iNOS mRNA expression in RAW 264.7 cells; assay: In-vitro effect on gene expression of inflammatory mediators (semi-quantitative RT-PCR); assay type: cell-based, mouse; conditions: 12 hrs incubation
[8] = system: TNF-α release from PBM cells; assay: In-vitro TNF-α release inhibition assay from PBMCs (LPS, ELISA); assay type: cell-based; conditions: Homo sapiens, PBMC; LPS stimulated PBM cells
Method: (§1) Blood (20 ml) was collected from healthy volunteers in a heparanised vial with 10 ml of lymphoprep (Nycomed pharma, AS) and centrifuged at 1800 rpm for 30 minutes at 23° C., mononuclear cell containing buffy layer was transferred to another tube and washed three times with PBS (phosphate buffered saline) and centrifuged at 1500 rpm for 15 minutes. Pellet cells were resuspended in 2 ml of RPMI-1640 medium (Biochrom, AG) supplemented with 25 mM HEPES [N-(2-hydroxyethyl)piperazine-N′-(2-ethanesulfonic acid)], L-glutamine (2 mM), penicillin (100 U/ ml), streptomycin (100 μg/ml) and 10% inactivated FCS (fetal calf serum) and, finally viable cells were counted.
(§2) PBM cells were adjusted to 1×10^6 cells/ml number in RPMI 1640 medium, (Biochrom AG) and 100 μl volume of this cell suspension per well was plated in a 96 well plate. […] Twenty μl of DMSO control and each concentration of these prepared test samples were added to corresponding wells in a 96 well plate. The plate was incubated for 30 minutes at room temperature on rotatory shaker at 200 rpm and 50 μl of lipopolysacchride (LPS) (4 μg/ml) was added to each well, except negative LPS control wells. […] A dose response curve was generated with different concentrations of test sample and the IC50 was calculated using Graph Pad Prism. […]

[9] = system: LTB4 release from neutrophils; assay: In-vitro leukotriene B4 (LTB4) release assay (A23187, ELISA); assay type: cell-based; conditions: Homo sapiens, Neutrophil; A23187 stimulated
Method: Neutrophils were isolated from freshly drawn human blood after dextran sedimentation and ficoll separation [Hatzelmann and Ullrich, Eur. J. […] Ca^++/Mg^++ (0.25 mM) was added, 3 minutes before the end of incubation with these test samples. Then, 0.3 μg/ml of A23187 (Calcimycin) was added and incubated for further 10 minutes. The reaction was stopped by adding 80 μl of cold methanol and mixture was spun at 3500 rpm for 10 minutes to remove cell debris. The samples were analyzed for LTB4 assay [Hatzelmann and Schudt, J. Pharmacol. Exp. […] (2001), 267-279] using LTB4 ELISA kits (Assay Design Inc., USA). The amount of LTB4 was quantified and percent inhibition in LTB4 release was calculated with respect to control (without test sample) to compute IC50 values.

[10] = system: PBM cells (peripheral blood mononuclear cells); assay: In-vitro mitogen induced lymphocyte proliferation assay (3H-thymidine uptake); assay type: cell-based; conditions: Homo sapiens, PBMC; 20 μg/ml
Method: Blood (20 ml) was collected from healthy volunteers in a […] 10 ml of lymphoprep (Nycomed pharma, AS) and centrifuged at 1800 rpm for 30 minutes at 23° C., mononuclear cell containing buffy layer was transferred to another tube and washed three times with PBS (phosphate buffered saline) and centrifuged at 1500 rpm for 15 minutes. […] PBM cells were adjusted to a concentration of 1×10^6 cells/ml in RPMI buffer (Biochrom AG) and 2×10^5 cells/well were seeded in a total volume of 200 μl to a 96 well U bottom plate. […] Cultures were incorporated with 0.5 μCi[3H], 18 hours before the completion of incubation and cells were harvested on glass fiber filter using multi-well harvester and thymidine uptake was determined by measuring radioactivity on liquid scintillation counter and the mean count per minute (CPM) of triplicate was calculated.

[11] = system: IL-1β release from PBM cells; assay: In-vitro IL-1β release inhibition assay from PBMCs (LPS, ELISA); assay type: cell-based; conditions: Homo sapiens, PBMC; LPS stimulated PBM cells; read-out: IC50 against IL-1β release
Method: as §1, §2

supernatant cells = assay: Cell viability/toxicity test (MTT assay); assay type: cell-based
Method: Viability of cells was analyzed using (3-4,5-dimethylthiazol-2-yl)-2,5-diphenyl-tetrazolium bromide (MTT) assay (Mosmann T, J Immunol. Meth., 65 (1983), 55-63) with supernatant cells by adding 0.1 mL of MTT (0.25 mg/mL) with 0.1 mL of supernatant cells. The cells were incubated at 37° C. for about 2-4 hours, and then the optical density was measured at 490-650 nm.

[12] = system: nuclear factor-(kappa)B and transcription factor AP-1; conditions: Pandey et al 2005; cited from earlier work
[13] = system: IL-2 production in human PBMCs; conditions: phytohemagglutinin stimulated; Pandey et al 2005; cited from earlier work
[14] = system: TNF-α production in human PBMCs; conditions: lipo-polysaccharide induced; Pandey et al 2005; cited from earlier work

## COc1ccc2c(c1)c(CC(=O)O)c(C)n2C(=O)c1ccc(Cl)cc1 [Indomethacin]
[1]
  paw edema: reversal of the paw edema toward basal level
[2]; 0.2 mg/kg
  % inhibition (histopathological score): 62.8%
[2]; 0.2 mg/kg/day, FIG. 13 A
  recruitment of inflammatory cells: completely prevented the recruitment of inflammatory cells
[2]; 0.2 mg/kg/day, FIG. 13 B
  Pannus formation: mild
[2]; 0.2 mg/kg/day, FIG. 13 C
  inhibitory effect on cartilage degradation: prominent
[3]
  inhibition of carrageenan induced paw edema: 48%
CFA induced hyperalgesia
  reversal of the hyperalgesia induced by CFA: 64%
[4]
  inhibition (carrageenan induced hyperalgesia): 66%

## CC(C)=CCN1CCC2(C)c3cc(O)ccc3CC1C2C (centres unmarked) [Pentazocin]
[5]
  percent protection in Phase-I pain: 40%
  percent protection in Phase-II pain: 50%

## O=c1ncn2nc(Sc3ccc(F)cc3F)ccc2c1-c1c(Cl)cccc1Cl [Vx745]
[6]
  inhibition of LPS response (TNF-α): 59%

## Cc1c(O)cc2oc3c(c(=O)c2c1O)-c1ccc(O)cc1OC3O (centres unmarked) [Boeravinone E]
[7]
  expression of TNF-α, IL-1β and iNOS: down regulated all the 3 inflammatory mediators
[8]
  IC50: 7 µg/mL (≈ 21.3 µM)
[9]
  IC50: 21.8 µg/mL (≈ 66.4 µM)
[10]
  inhibition at 20 µg/mL: 59%
[11]
  IC50: 7 µg/mL (≈ 21.3 µM)
Supernatant cells
  concentration at 50% viability of tested cells: 81.5 µg/mL

## COc1cc2oc(-c3ccc(O)cc3)c(OC3OC(CO)C(O)C(O)C3O)c(=O)c2c(O)c1OC [Bd-I, eupalitin-3-O-beta-D-galactopyranoside]
[12]
  activation of DNA binding of nuclear factor-(kappa)B and AP-1: block the activation of DNA binding
[13]
  production of IL-2 at the protein and mRNA transcript levels: inhibited
[14]
  TNF-α production: inhibited

## Cc1c(O)cc2oc3c(c(=O)c2c1O)-c1ccccc1OC3O (centres unmarked) [Boeravinone B]
[7]
  expression of TNF-α, IL-1β and iNOS: down regulated all the 3 inflammatory mediators
[8]
  IC50: 6.8 µg/mL (≈ 21.8 µM)
[9]
  IC50: > 100 µg/mL
[10]
  inhibition at 20 µg/mL: 66%
[11]
  IC50: 3.6 µg/mL (≈ 11.5 µM)
Supernatant cells
  concentration at 50% viability of tested cells: 64.5 µg/mL
